Assay type in all cases: cell-based, human
In data set [1] the test system is T2 cells pulsed with corresponding peptide. The data set is described as follows: IFN-gamma ELISA of CTL clones established by limiting dilution. As for the experimental part:
The dilutions were made to have 0.3, 1, and 3 CTLs/well in 96 round-bottomed micro titer plate (Nalge Nunc International). CTLs were cultured with 1×10^4 cells/well of 2 kinds of human B-lymphoblastoid cell lines, 30 ng/ml of anti-CD3 antibody, and 125 U/ml of IL-2 in a total of 150 microliter/well of AIM-V Medium containing 5% AS. 50 microliter/well of IL-2 were added to the medium 10 days later to reach a final concentration of 125 U/ml IL-2. CTL activity was tested on the 14th day, and CTL clones were expanded using the same method as described above (Uchida N et al., Clin Cancer Res 2004 Dec. 15, 10(24): 8577-86; Suda T et al., Cancer Sci 2006 May, 97(5): 411-9; Watanabe T et al., Cancer Sci 2005 August, 96(8): 498-506).
(§1) To examine specific CTL activity, interferon(IFN)-gamma enzyme-linked immunospot (ELISPOT) assay and IFN-gamma enzyme-linked immunosorbent assay (ELISA) were performed. Peptide-pulsed T2 (1×10^4/well) was prepared as stimulator cells. Cultured cells in 48-well plate, CTL lines and CTL clones were used as responder cells. IFN-gamma ELISPOT assay and IFN-gamma ELISA assay were performed under manufacture procedure.
On the technique in general: An ELISA detects its analyte on a solid surface through an enzyme-linked reagent.

For data set [2], the system named is T2 cells pulsed with the corresponding peptide. The data set is described as follows: IFN-gamma ELISA of established CTL lines. As to conditions: T2 cells pulsed with corresponding peptide vs T2 cells without peptide pulse. As for the experimental part: CTLs were expanded in culture using the method similar to the one described by Riddell et al. (Walter E A et al., N Engl J Med 1995 Oct. 19, 333(16): 1038-44; Riddell S R et al., Nat Med 1996 February, 2(2): 216-23). A total of 5×10^4 CTLs were suspended in 25 ml of AIM-V/5% AS medium with 2 kinds of human B-lymphoblastoid cell lines, inactivated by Mitomycin C, in the presence of 40 ng/ml of anti-CD3 monoclonal antibody (Pharmingen). One day after initiating the cultures, 120 IU/ml of IL-2 were added to the cultures. The cultures were fed with fresh AIM-V/5% AS medium containing 30 IU/ml of IL-2 on days 5, 8 and 11 (Tanaka H et al., Br J Cancer 2001 Jan. 5, 84(1): 94-9; Umano Y et al., Br J Cancer 2001 Apr. 20, 84(8): 1052-7; Uchida N et al., Clin Cancer Res 2004 Dec. 15, 10(24): 8577-86; Suda T et al., Cancer Sci 2006 May, 97(5): 411-9; Watanabe T et al., Cancer Sci 2005 August, 96(8): 498-506).
as §1

The subject of the next data set is peptide-pulsed T2 cells. The data set is described as follows: IFN-gamma ELISPOT assay of CTLs induced with peptide-pulsed DCs. The conditions noted are these: CTLs from HLA-A*0201 positive donor after 3rd peptide stimulation, day 21; peptide-pulsed T2 vs control wells.
Excerpt: Monocyte-derived dendritic cells (DCs) were used as antigen-presenting cells to induce cytotoxic T lymphocyte (CTL) that responses against peptides presented on human leukocyte antigen (HLA). DCs were generated in vitro as described elsewhere (Nakahara S et al., Cancer Res 2003 Jul. 15, 63(14): 4112-8). Specifically, peripheral blood mononuclear cells isolated from a normal volunteer (HLA-A*0201 positive) by Ficoll-Paque plus (Pharmacia) solution were separated by adherence to a plastic tissue culture dish (Becton Dickinson) so as to enrich them as the monocyte fraction. The monocyte-enriched population was cultured in the presence of 1000 U/ml of granulocyte-macrophage colony-stimulating factor (R&D System) and 1000 U/ml of interleukin (IL)-4 (R&D System) in AIM-V Medium (Invitrogen) containing 2% heat-inactivated autologous serum (AS). After 7 days of culture, the cytokine-induced DCs were pulsed with 20 microgram/ml of each of the synthesized peptides in the presence of 3 microgram/ml of beta 2-microglobulin for 3 hr at 37 degrees C. in AIM-V Medium. The generated cells appeared to express DC-associated molecules, such as CD80, CD83, CD86 and HLA class II, on their cell surfaces (data not shown). These peptide-pulsed DCs were then inactivated by X ray-irradiated (20 Gy) and mixed at a 1:20 ratio with autologous CD8^+ T cells, obtained by positive selection with CD8 Positive Isolation Kit (Dynal). These cultures were set up in 48-well plates (Corning); each well contained 1.5×10^4 peptide-pulsed DCs, 3×10^5 CD8^+ T cells and 10 ng/ml of IL-7 (R&D System) in 0.5 ml of AIM-V/2% AS medium. Three days later, these cultures were supplemented with IL-2 (CHIRON) to a final concentration of 20 IU/ml. On day 7 and 14, the T cells were further stimulated with the autologous peptide-pulsed DCs. The DCs were prepared each time by the same way described above. CTL was tested against peptide-pulsed T2 cells after the 3rd round of peptide stimulation on day 21 (Tanaka H et al., Br J Cancer 2001 Jan. 5, 84(1): 94-9; Umano Y et al., Br J Cancer 2001 Apr. 20, 84(8): 1052-7; Uchida N et al., Clin Cancer Res 2004 Dec. 15, 10(24): 8577-86; Suda T et al., Cancer Sci 2006 May, 97(5): 411-9; Watanabe T et al., Cancer Sci 2005 August, 96(8): 498-506).
as §1

For another data set, the system named is MKN45 cells. The data set is described as follows: Cytotoxic activity of CTL clone, 51Cr-release, HLA-A*0201-negative control. As to conditions: express MPHOSPH1 but not HLA-A*0201. As for the experimental part: (§2) The CTL clones were examined for their ability to kill the tumor cells endogenously expressing MPHOSPH1 and HLA-A*0201. Target cells (tumor cell lines) were labeled with 100 micro-Ci of Na2^51CrO4 (Perkin Elmer) for 1 hr in CO2 incubator. Peptide-pulsed target cells were prepared by incubating the cells with 20 microgram/ml of the peptide for 16 hrs before labeling. Target cells labeled with ^51Cr were rinsed and mixed with CTL clones in a final volume of 200 microliter in 96-well round-bottom microtiter plates. The plates were centrifuged (4 minutes at 800 rpm) to increase cell-to-cell contact and placed into CO2 incubator. After 4 hrs of incubation, 50 microliter of the supernatant was collected from each well and the radioactivity was determined with a gamma counter (PerkinElmer). The percentage of specific cytotoxicity was determined by calculating the percentage of specific ^51Cr-release by the following formula: {(cpm of the test sample release−cpm of the spontaneous release)/(cpm of the maximum release−cpm of the spontaneous release)}×100. Spontaneous release was determined by incubating the target cells alone, in the absence of effector cells. The maximum release was obtained by incubating the targets with 1N HCl. All measurements were done in duplicate.

The next data set relates to T2 cells. The data set is described as follows: Cytotoxic activity of CTL clone, 51Cr-release, MPHOSPH1-negative control. As to conditions: express HLA-A*0201 but not MPHOSPH1. As for the experimental part: as §2
The next data set has as its system UMUC-3 cells. Briefly: Cytotoxic activity of CTL clone, 51Cr-release. The conditions noted are these: express both MPHOSPH1 and HLA-A*0201. As for the experimental part:
as §2

Where no end group is shown, it is not given here.

Consider “GLRAFLLTI (a peptide derived from MPHOSPH1) [SEQ ID NO: 64]”, for which, in data set [1], the “IFN-gamma production from CTL clones by IFN-gamma ELISA” value (shortened to “IFN-gamma production from CTL clones”) is “Potent IFN-gamma production was observed”. For the same substance, the “IFN-gamma production of CTL lines by IFN-gamma ELISA” value (“IFN-gamma production of CTL lines” below) in data set [2] is “potent IFN-gamma production against T2 cells pulsed with the corresponding peptide”. The “Peptide specific CTL activity (IFN-gamma production) by IFN-gamma ELISPOT” value (shortened to “Peptide specific CTL activity”) in the data set on peptide-pulsed T2 cells is reported as “potent IFN-gamma production as compared to the control wells”.
As for “FLLTIENEL (a peptide derived from MPHOSPH1) [SEQ ID NO: 5]”, the “IFN-gamma production from CTL clones” value in data set [1] is recorded as “Potent IFN-gamma production was observed”. Besides, in data set [2], the “IFN-gamma production of CTL lines” value is “potent IFN-gamma production against T2 cells pulsed with the corresponding peptide”. The “Peptide specific CTL activity” value in the data set on peptide-pulsed T2 cells is listed as “potent IFN-gamma production as compared to the control wells”.
As for “QLVAaLEIQL (QLVAALEIQL; not fully specified (residue 5); printed as QLVAaLEIQL) [SEQ ID NO: 103]”, in data set [2], the “IFN-gamma production of CTL lines” value is recorded as “potent IFN-gamma production against T2 cells pulsed with the corresponding peptide”. In addition, the “Peptide specific CTL activity” value in the data set on peptide-pulsed T2 cells is listed as “potent IFN-gamma production as compared to the control wells”.
With “KLLDLIEDL (a peptide derived from MPHOSPH1) [SEQ ID NO: 1]”, the “Peptide specific CTL activity” value in the data set on peptide-pulsed T2 cells is “no specific IFN-gamma production was observed”.
Consider “LLTLgKCINV (LLTLGKCINV; not fully specified (residue 5); printed as LLTLgKCINV) [SEQ ID NO: 79]”, for which, in data set [2], the “IFN-gamma production of CTL lines” value is listed as “potent IFN-gamma production against T2 cells pulsed with the corresponding peptide”. Moreover, in the data set on peptide-pulsed T2 cells, the “Peptide specific CTL activity” value is recorded as “potent IFN-gamma production as compared to the control wells”.
Regarding “KLICnETVEV (KLICNETVEV; not fully specified (residue 5); printed as KLICnETVEV) [SEQ ID NO: 77]”, the “IFN-gamma production from CTL clones” value in data set [1] is on record as “Potent IFN-gamma production was observed”. The “IFN-gamma production of CTL lines” value in data set [2] was “potent IFN-gamma production against T2 cells pulsed with the corresponding peptide”. Further, the “Peptide specific CTL activity” value in the data set on peptide-pulsed T2 cells is “potent IFN-gamma production as compared to the control wells”.
Taken in the same sequence, the figures for “YLAYdETLNV (YLAYDETLNV; not fully specified (residue 5); printed as YLAYdETLNV) [SEQ ID NO: 73]” were “Potent IFN-gamma production was observed”, “potent IFN-gamma production against T2 cells pulsed with the corresponding peptide” and “potent IFN-gamma production as compared to the control wells”.
For “KLSNeIETAT (KLSNEIETAT; not fully specified (residue 5); printed as KLSNeIETAT) [SEQ ID NO: 97]”, the “IFN-gamma production of CTL lines” value in data set [2] is given as “potent IFN-gamma production against T2 cells pulsed with the corresponding peptide”. For the same substance, the “Peptide specific CTL activity” value in the data set on peptide-pulsed T2 cells is “potent IFN-gamma production as compared to the control wells”.
Take “FQGCIMQPV (a peptide derived from MPHOSPH1) [SEQ ID NO: 14]”: the “IFN-gamma production of CTL lines” value in data set [2] is on record as “potent IFN-gamma production against T2 cells pulsed with the corresponding peptide”. In addition, in the data set on peptide-pulsed T2 cells, the “Peptide specific CTL activity” value is “potent IFN-gamma production as compared to the control wells”.
Regarding YIYDLFVPVS [SEQ ID NO: 120, YIYDLFVPVS], the “Cytotoxic activity of CTL clone” value is listed as “no significant cytotoxic activity was detected” in the data set with MKN45 cells, “no significant cytotoxic activity was detected” in the data set on T2 cells and “potent cytotoxic activity” in the data set on UMUC-3 cells.

The record behind these values is patent US9458447B2, “MPHOSPH1 peptides and vaccines including the same” (OncoTherapy Science, Inc., priority 2011, dated 2016).
